Activity calls are given as the source filed them. The calls are words filed in the database; no cut-off is given here.
What was measured:
Format in all cases: functional, cell-based
K562 [1] = test: Cytotoxicity against human K562 cells assessed as growth inhibition after 72 hrs by MTT assay; conditions: K562, 72 h
SUP-T1 = test: Cytotoxicity against human SupT1 cells assessed as growth inhibition after 72 hrs by MTT assay; conditions: SUP-T1, 72 h
U-937 [2] = test: Cytotoxicity against human U937 cells assessed as growth inhibition after 72 hrs by MTT assay; conditions: U-937, 72 h
MOLT-4 = test: Cytotoxicity against human MOLT4 cells assessed as growth inhibition after 72 hrs by MTT assay; conditions: MOLT-4, 72 h
K562 [3] = test: Cytotoxicity against human K562 cells assessed as growth inhibition at 20 ug/ml after 72 hrs by MTT assay
U-937 [4] = test: Cytotoxicity against human U937 cells assessed as growth inhibition at 20 ug/ml after 72 hrs by MTT assay

COc1cccc2c1C(=O)c1c(O)c3c(c(O)c1C2=O)C[C@@](O)(C(=O)CO)C[C@@H]3O[C@H]1C[C@H](N)[C@H](O)[C@H](C)O1 [DOXORUBICIN]
IC50 (K562 [1]): 280 nM
IC50 (SUP-T1): 40 nM
IC50 (U-937 [2]): 420 nM

C=C(CC[C@@H](C)[C@H]1CC[C@H]2[C@@H]3CC=C4C[C@@H](O)CC[C@]4(O)[C@H]3CC[C@]12C)C(C)C
IC50 (MOLT-4): 18300 nM
IC50 (SUP-T1): 25500 nM
growth inhibition (GI) (K562 [3]): inactive
growth inhibition (GI) (U-937 [4]): inactive

From ChEMBL document CHEMBL4428112, “Columnaristerol A, a novel 19-norsterol from the Formosan octocoral Nephthea columnaris” (Bioorg Med Chem Lett, 2016)
